27 molecules from patent publication US20260200920A1, “SUBSTITUTED AMINOPYRIDINE COMPOUNDS FOR USE AS AKT1 INHIBITORS” (Atavistik Bio, Inc., priority 2023, published 2026) can be followed below.

The target of assay [1] is T1, human recombinant kinase full-length AKT1 E17K (Homo sapiens, UniProt P31749, E17K).
T1 construct: Purified human recombinant kinase full-length AKT1 E17K was expressed in insect cells; made in house; host or cells: insect cells
In words: AKT1 E17K kinase assay (TR-FRET, Lance). In kind it is biochemical. As to conditions: 0.6 nM AKT1 E17K, 50 nM Ulight-CREBtide, either 50 μM ATP or 2 mM ATP, 60 min at RT. The method in brief: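 Full-length AKT1 E17K from insect cells, PDPK1-activated, at 0.6 nM with 50 nM Ulight-CREBtide and 50 μM or 2 mM ATP, pH 7.5, 1% DMSO. Enzyme and compound preincubated 15 min, reaction run 60 min at RT; Eu-anti-phospho-CREB (Ser133) TR-FRET 665/620 ratio, 10-point curve, IC50 by 4-parameter fit.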

The target of assay [2] is T2, human recombinant kinase full-length wildtype AKT1 (Homo sapiens, UniProt P31749).
T2 construct: Purified human recombinant kinase full-length wildtype AKT1 was expressed in insect cells; made in house; host or cells: insect cells
T2 sequence (P31749 whole entry): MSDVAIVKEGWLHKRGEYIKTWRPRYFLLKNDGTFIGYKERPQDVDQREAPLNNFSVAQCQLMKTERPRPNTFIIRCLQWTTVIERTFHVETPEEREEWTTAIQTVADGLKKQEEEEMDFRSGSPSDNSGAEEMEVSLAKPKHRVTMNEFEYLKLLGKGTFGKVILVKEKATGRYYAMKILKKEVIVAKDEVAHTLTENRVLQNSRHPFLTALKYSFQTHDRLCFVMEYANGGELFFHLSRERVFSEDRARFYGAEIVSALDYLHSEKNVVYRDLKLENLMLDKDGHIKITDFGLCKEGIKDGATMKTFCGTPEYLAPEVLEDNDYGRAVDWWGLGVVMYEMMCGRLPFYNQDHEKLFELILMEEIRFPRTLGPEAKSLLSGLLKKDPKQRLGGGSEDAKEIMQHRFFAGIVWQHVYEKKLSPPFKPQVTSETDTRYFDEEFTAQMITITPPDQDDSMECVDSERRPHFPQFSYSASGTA
Briefly: AKT1 kinase assay (wildtype, TR-FRET, Lance). In kind it is biochemical. As to conditions: 0.6 nM wildtype AKT1, 50 nM Ulight-CREBtide, either 50 μM ATP or 2 mM ATP, 60 min at RT. The method, boiled down: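 Insect-cell-expressed full-length human AKT1, PDPK1-activated (0.6 nM), preincubated with compound 15 min at RT, then reacted 60 min at RT with 50 nM ULight-CREBtide and 50 μM or 2 mM ATP (pH 7.5, 1% DMSO). Phospho-CREBtide read by Eu-anti-phospho-Ser133 TR-FRET (665/620 ratio); IC50 from 10-point 4-parameter fit.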

Some results are limits rather than exact numbers.

T1 sequence (P31749 whole entry E17K): as the sequence (P31749 whole entry) above, with E17K counted along it

For the molecule `Nc1ncccc1-c1nc2ccc(-c3ccccc3F)nc2n1-c1ccc(C2CN(CC34CCC(C(=O)O)(CC3)CC4)C2)cc1` [Compound I-203], the values for the IC50 in assay [1] and in assay [2] were less than 500 nM and less than 20000 nM, respectively.

As to `Cc1cc(C2CN(CC3CC4(C3)CC(C(=O)O)C4)C2)ccc1-n1c(-c2cccnc2N)nc2ccc(-c3ccccc3)nc21` (stereo not drawn) [Compound I-204], the half-inhibitory concentration (IC50) in assay [1] was less than 500 nM; in assay [2], less than 20000 nM.

Regarding `Cc1cc(C2CN(C[C@H]3CC[C@@H](C(=O)O)CC3)C2)ccc1-n1c(-c2cccnc2N)nc2ccc(-c3ccccc3)nc21` [Compound I-205], the concentration for half-maximal inhibition (IC50) in assay [1] is 500 to 2000 nM; in assay [2], less than 20000 nM.

For the molecule `Cc1cc(C2CN(CC34CCC(C(=O)O)(CC3)CC4)C2)ccc1-n1c(-c2cccnc2N)nc2ccc(-c3ccccc3)nc21` [Compound I-206], the 50% inhibitory concentration (IC50) in assay [1] was 500 to 2000 nM; in assay [2], less than 20000 nM.

As for `Cc1cc(C2CN(CC3CC4CC(C(=O)O)CC4C3)C2)ccc1-n1c(-c2cccnc2N)nc2ccc(-c3ccccc3)nc21` (stereo not drawn) [Compound I-207], the IC50 in assay [1] is 500 to 2000 nM; in assay [2], less than 20000 nM.

Take `Nc1ncccc1-c1nc2ccc(-c3ccccc3)nc2n1-c1c(F)cc(C2CN(C[C@H]3CC[C@H](C(=O)O)CC3)C2)cc1F` [Compound I-208]: the results for the IC50 in assay [1] and in assay [2] were 500 to 2000 nM and less than 20000 nM, respectively.

With `Cc1cc(C2CN(C[C@H]3CC[C@H](C(=O)O)CC3)C2)ccc1-n1c(-c2cccnc2N)nc2ccc(-c3ccccc3F)nc21` [Compound I-209], the results for the IC50 in assay [1] and in assay [2] were 500 to 2000 nM and less than 20000 nM, respectively.

For the molecule `Cc1cc(C2CN(C[C@H]3CC[C@@H](C(=O)O)CC3)C2)ccc1-n1c(-c2cccnc2N)nc2ccc(-c3ccccc3F)nc21` [Compound I-210], the half-maximal inhibitory concentration (IC50) in assay [1] is 500 to 2000 nM; in assay [2], less than 20000 nM.

For the molecule `Cc1ccccc1-c1ccc2nc(-c3cccnc3N)n(-c3ccc(C4CN(C[C@H]5CC[C@H](C(=O)O)CC5)C4)cc3C)c2n1` [Compound I-211], the IC50 in assay [1] was no less than 2000 nM; in assay [2] it was less than 20000 nM.

For `Cc1ccccc1-c1ccc2nc(-c3cccnc3N)n(-c3ccc(C4CN(C[C@H]5CC[C@H](C(=O)O)CC5)C4)cc3)c2n1` [Compound I-212], the IC50 in assay [1] was 500 to 2000 nM; in assay [2] it was less than 20000 nM.

As for `Nc1ncccc1-c1nc2ccc(-c3ccccc3F)nc2n1-c1ccc(C2CN(C[C@H]3CC[C@H](C(=O)O)CC3)C2)cc1` [Compound I-213], the IC50 in assay [1] was less than 500 nM; in assay [2] it was less than 20000 nM.

As to `Cc1nc(NC(=O)[C@H]2CC[C@H](C(=O)O)CC2)ccc1-n1c(-c2cccnc2N)nc2ccc(-c3cccc(F)c3)nc21` [Compound I-214], the half-maximal inhibitory concentration (IC50) in assay [1] is less than 500 nM; in assay [2] it was less than 20000 nM.

Turning to `Cc1nc(NC(=O)[C@H]2CC[C@H](C(=O)O)CC2)ccc1-n1c(-c2cccnc2N)nc2ccc(-c3ccc(F)cc3)nc21` [Compound I-215], the results for the IC50 in assay [1] and in assay [2] were 500 to 2000 nM and less than 20000 nM, respectively.

On to `Cc1nc(NC(=O)[C@H]2CC[C@H](C(=O)O)CC2)ccc1-n1c(-c2cccnc2N)nc2ccc(-c3ccc(F)cc3F)nc21` [Compound I-216], for which the values for the IC50 in assay [1] and in assay [2] were no less than 2000 nM and less than 20000 nM, respectively.

Consider `Cc1nc(NC(=O)[C@H]2CC[C@H](C(=O)O)CC2)ccc1-n1c(-c2cccnc2N)nc2ccc(-c3c(F)cccc3F)nc21` [Compound I-217], for which the IC50 was 500 to 2000 nM in assay [1] and less than 20000 nM in assay [2].

Take `Cc1nc(NC(=O)[C@H]2CC[C@H](C(=O)O)CC2)ccc1-n1c(-c2cccnc2N)nc2ccc(-c3ccccc3F)nc21` [Compound I-218]: the IC50 in assay [1] was 500 to 2000 nM; in assay [2], less than 20000 nM.

As to `Cc1nc(NC(=O)[C@H]2CC[C@H](C(=O)O)CC2)ccc1-n1c(-c2cccnc2N)nc2ccc(-c3cccc(F)c3F)nc21` [Compound I-219], the IC50 in assay [1] was 500 to 2000 nM; in assay [2], less than 20000 nM.

Take `COc1ccccc1-c1ccc2nc(-c3cccnc3N)n(-c3ccc(NC(=O)[C@H]4CC[C@H](C(=O)O)CC4)nc3C)c2n1` [Compound I-220]: the IC50 was 500 to 2000 nM in assay [1] and less than 20000 nM in assay [2].

For the molecule `Nc1ncccc1-c1nc2ccc(-c3ccccc3)cc2n1-c1ccc(C2CN(C[C@H]3CC[C@H](C(=O)O)CC3)C2)cc1` [Compound I-221, (1r,4r)-4-((3-(4-(2-(2-aminopyridin-3-yl)-6-phenyl-1H-benzo[d]imidazol-1-yl)phenyl)azetidin-1-yl)methyl)cyclohexane-1-carboxylic acid], the half-inhibitory concentration (IC50) in assay [1] is 500 to 2000 nM; in assay [2] it was less than 20000 nM.

With `Cc1cc(C2CN(C[C@H]3CC[C@@H](C(=O)O)CC3)C2)ccc1-n1c(-c2cccnc2N)nc2ccc(-c3ccccc3)cc21` [Compound I-222], the results for the IC50 in assay [1] and in assay [2] were 500 to 2000 nM and less than 20000 nM, respectively.

`Cc1cc(C2CN(C[C@H]3CC[C@H](C(=O)O)CC3)C2)ccc1-n1c(-c2cccnc2N)nc2ccc(-c3ccccc3)cc21` [Compound I-223]: the values for the IC50 in assay [1] and in assay [2] were no less than 2000 nM and less than 20000 nM, respectively.

As to `Cc1cc(C2CN(CC3CC4(C3)CC(C(=O)O)C4)C2)ccc1-n1c(-c2cccnc2N)nc2ccc(-c3ccccc3)cc21` (stereo not drawn) [Compound I-224], the IC50 is no less than 2000 nM in assay [1] and less than 20000 nM in assay [2].

As to `Cc1nc(NCC2CC3(C2)CC(C(=O)O)C3)ccc1-n1c(-c2cccnc2N)nc2ccc(-c3ccccc3)nc21` (stereo not drawn) [Compound I-225], the half-maximal inhibitory concentration (IC50) in assay [1] was less than 500 nM; in assay [2], less than 20000 nM.

Regarding `Cc1nc(NC[C@@H]2CC[C@H](C(=O)O)C2)ccc1-n1c(-c2cccnc2N)nc2ccc(-c3ccccc3)nc21` [Compound I-226], the IC50 in assay [1] is 500 to 2000 nM; in assay [2], less than 20000 nM.

On to `Cc1nc(NC[C@@H]2CC[C@@H](C(=O)O)C2)ccc1-n1c(-c2cccnc2N)nc2ccc(-c3ccccc3)nc21` [Compound I-227], for which the half-inhibitory concentration (IC50) in assay [1] is 500 to 2000 nM; in assay [2], less than 20000 nM.

Consider `Cc1cc2nc(-c3cccnc3N)n(-c3ccc(C4CN(C[C@H]5CC[C@@H](C(=O)O)CC5)C4)cc3)c2nc1-c1ccccc1` [Compound I-234, Cis-4-((3-(4-(2-(2-aminopyridin-3-yl)-6-methyl-5-phenyl-3H-imidazo[4,5-b]pyridin-3-yl)phenyl)azetidin-1-yl)methyl)cyclohexane-1-carboxylic acid], for which the IC50 was less than 500 nM in assay [1] and less than 20000 nM in assay [2].

Consider `Cc1cc2nc(-c3cccnc3N)n(-c3ccc(C4CN(C[C@H]5CC[C@H](C(=O)O)CC5)C4)cc3)c2nc1-c1ccccc1` [Compound I-235, trans-4-((3-(4-(2-(2-aminopyridin-3-yl)-6-methyl-5-phenyl-3H-imidazo[4,5-b]pyridin-3-yl)phenyl)azetidin-1-yl)methyl)cyclohexane-1-carboxylic acid], for which the values for the half-inhibitory concentration (IC50) in assay [1] and in assay [2] were less than 500 nM and less than 20000 nM, respectively.
